Assay results published in ChEMBL document CHEMBL1287799, “Design, synthesis, and structure-activity relationship study of bicyclic piperazine analogs of indole-3-carboxamides as novel cannabinoid CB1 receptor agonists” (Bioorg Med Chem Lett, 2010).
Calls of active or inactive are those of the source. The rule behind the calls is not given here.

Tests used:
[1] = target: Cytochrome P450 2C9 (Homo sapiens, UniProt P11712); test: Inhibition of human CYP2C9; type: ADME
[2] = target: Cannabinoid receptor 2 (Homo sapiens, UniProt P34972); test: Displacement of [3H]-CP55940 from human CB2 expressed in insect Sf9 membranes; type: cell membranes
Cannabinoid receptor 2, sequence (P34972 whole entry): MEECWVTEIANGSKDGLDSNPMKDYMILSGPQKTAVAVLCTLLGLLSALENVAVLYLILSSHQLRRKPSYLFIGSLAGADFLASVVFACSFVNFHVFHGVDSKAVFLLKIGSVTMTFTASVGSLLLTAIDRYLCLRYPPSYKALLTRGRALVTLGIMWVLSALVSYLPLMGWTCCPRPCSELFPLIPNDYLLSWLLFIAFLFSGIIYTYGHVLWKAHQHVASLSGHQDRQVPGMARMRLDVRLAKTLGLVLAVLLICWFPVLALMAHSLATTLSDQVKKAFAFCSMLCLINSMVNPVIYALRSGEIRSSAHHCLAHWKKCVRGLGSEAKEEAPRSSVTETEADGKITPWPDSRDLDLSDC

[3] = Genotoxicity in Salmonella Typhimurium up to 100 uM by Ames test; type: toxicity; conditions: salmonella enterica subsp. enterica serovar typhimurium
[4] = system: Mus musculus; test: Antinociceptive effect in iv dosed mouse assessed as increase in tail-flick latency period by tail flick test; type: functional
[5] = target: T1, Cannabinoid receptor 1 (Homo sapiens, UniProt P21554); test: biochemical
T1 sequence (P21554 whole entry): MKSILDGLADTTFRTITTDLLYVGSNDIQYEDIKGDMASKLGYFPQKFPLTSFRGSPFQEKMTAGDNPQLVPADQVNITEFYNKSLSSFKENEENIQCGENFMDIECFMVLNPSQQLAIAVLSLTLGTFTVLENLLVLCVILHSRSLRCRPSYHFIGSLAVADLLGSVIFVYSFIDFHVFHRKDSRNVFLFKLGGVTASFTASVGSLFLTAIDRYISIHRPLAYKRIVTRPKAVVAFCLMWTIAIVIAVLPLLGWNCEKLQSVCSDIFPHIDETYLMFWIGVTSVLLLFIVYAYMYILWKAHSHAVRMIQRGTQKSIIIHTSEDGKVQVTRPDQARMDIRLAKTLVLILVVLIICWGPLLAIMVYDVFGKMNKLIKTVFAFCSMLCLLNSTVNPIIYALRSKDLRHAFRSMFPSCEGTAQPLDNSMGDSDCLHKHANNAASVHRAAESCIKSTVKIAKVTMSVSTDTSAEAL

[6] = target: Cytochrome P450 3A4 (Homo sapiens, UniProt P08684); test: Inhibition of human CYP3A4; type: ADME
Cytochrome P450 3A4, sequence (P08684 whole entry): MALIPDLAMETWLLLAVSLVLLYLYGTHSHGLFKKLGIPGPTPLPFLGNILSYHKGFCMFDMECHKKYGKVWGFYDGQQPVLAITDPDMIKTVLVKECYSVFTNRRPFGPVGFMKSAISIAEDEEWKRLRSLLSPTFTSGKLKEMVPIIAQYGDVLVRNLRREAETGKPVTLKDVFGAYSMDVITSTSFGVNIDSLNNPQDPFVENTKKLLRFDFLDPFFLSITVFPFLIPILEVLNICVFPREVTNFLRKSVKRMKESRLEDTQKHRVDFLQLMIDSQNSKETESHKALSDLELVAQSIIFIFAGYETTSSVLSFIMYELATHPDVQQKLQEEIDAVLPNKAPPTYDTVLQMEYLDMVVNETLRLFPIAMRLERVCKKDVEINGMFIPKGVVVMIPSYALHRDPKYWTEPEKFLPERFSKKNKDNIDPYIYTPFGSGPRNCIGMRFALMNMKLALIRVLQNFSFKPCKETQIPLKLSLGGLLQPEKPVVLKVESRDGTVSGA

[7] = target: Cytochrome P450 2D6 (Homo sapiens, UniProt P10635); test: Inhibition of human CYP2D6; type: ADME
Cytochrome P450 2D6, sequence (P10635 whole entry): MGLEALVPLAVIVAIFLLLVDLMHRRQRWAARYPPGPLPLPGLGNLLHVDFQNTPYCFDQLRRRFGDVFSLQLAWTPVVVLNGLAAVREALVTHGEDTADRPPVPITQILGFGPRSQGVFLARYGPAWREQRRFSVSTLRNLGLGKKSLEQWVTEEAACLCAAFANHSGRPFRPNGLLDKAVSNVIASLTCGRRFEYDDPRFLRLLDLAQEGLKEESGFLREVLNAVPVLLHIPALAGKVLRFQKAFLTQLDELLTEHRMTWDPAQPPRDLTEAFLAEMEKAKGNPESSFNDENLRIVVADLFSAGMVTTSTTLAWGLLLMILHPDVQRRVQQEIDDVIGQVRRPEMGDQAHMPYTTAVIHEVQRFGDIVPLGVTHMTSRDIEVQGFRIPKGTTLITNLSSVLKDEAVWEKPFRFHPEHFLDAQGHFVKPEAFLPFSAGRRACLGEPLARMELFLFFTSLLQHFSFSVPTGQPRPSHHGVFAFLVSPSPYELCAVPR

[8] = target: T1, Cannabinoid receptor 1
Description: Agonist activity at human CB1 receptor transfected in CHO cells after 5 hrs by luciferase reporter gene assay

[9] = Half life in mouse liver microsomes; type: ADME, Microsome
[10] = Half life in human liver microsomes; type: ADME, Microsome
[11] = system: Mus musculus; test: Antinociceptive activity against formalin-induced inflammatory pain in iv dosed mouse assessed inhibition of paw lifting behavior in both phases of formalin response in presence of CB1 antagonist SR-141716A pretreated before compound challenge; type: functional, organism-based
[12] = system: Mus musculus; test: Antinociceptive activity against formalin-induced inflammatory pain in iv dosed mouse assessed inhibition of paw lifting behavior in both phases of formalin response; type: functional, organism-based
[13] = system: Mus musculus; test: Antinociceptive activity against formalin-induced inflammatory pain in iv dosed mouse assessed inhibition of paw biting behavior in both phases of formalin response; type: functional, organism-based
[14] = system: Mus musculus; test: Antinociceptive activity against formalin-induced inflammatory pain in mouse assessed inhibition of paw flinching behavior in both phases of formalin response at => 0.3 umol/kg, iv; type: functional, organism-based
[15] = system: Mus musculus; test: Antinociceptive activity against formalin-induced inflammatory pain in iv dosed mouse assessed inhibition of paw biting behavior in both phases of formalin response in presence of CB1 antagonist SR-141716A pretreated before compound challenge; type: functional, organism-based
[16] = system: Mus musculus; test: Antinociceptive activity against formalin-induced inflammatory pain in mouse assessed inhibition of paw licking behavior in both phases of formalin response at => 0.3 umol/kg, iv; type: functional, organism-based
[17] = system: Mus musculus; test: Antinociceptive activity against formalin-induced inflammatory pain in iv dosed mouse assessed inhibition of paw licking behavior in both phases of formalin response; type: functional, organism-based
[18] = system: Mus musculus; test: Antinociceptive activity against formalin-induced inflammatory pain in iv dosed mouse assessed inhibition of paw flinching behavior in both phases of formalin response; type: functional, organism-based
[19] = system: Mus musculus; test: Antinociceptive activity against formalin-induced inflammatory pain in iv dosed mouse assessed inhibition of paw licking behavior in both phases of formalin response in presence of CB1 antagonist SR-141716A pretreated before compound challenge; type: functional, organism-based
[20] = system: Mus musculus; test: Antinociceptive activity against formalin-induced inflammatory pain in mouse assessed inhibition of paw biting behavior in both phases of formalin response => 0.3 umol/kg, iv; type: functional, organism-based
[21] = system: Mus musculus; test: Antinociceptive activity against formalin-induced inflammatory pain in mouse assessed inhibition of paw lifting behavior in both phases of formalin response at => 0.3 umol/kg, iv; type: functional, organism-based
[22] = system: Mus musculus; test: Antinociceptive activity against formalin-induced inflammatory pain in iv dosed mouse assessed inhibition of paw flinching behavior in both phases of formalin response in presence of CB1 antagonist SR-141716A pretreated before compound challenge; type: functional, organism-based

Cytochrome P450 2C9, sequence (P11712 whole entry): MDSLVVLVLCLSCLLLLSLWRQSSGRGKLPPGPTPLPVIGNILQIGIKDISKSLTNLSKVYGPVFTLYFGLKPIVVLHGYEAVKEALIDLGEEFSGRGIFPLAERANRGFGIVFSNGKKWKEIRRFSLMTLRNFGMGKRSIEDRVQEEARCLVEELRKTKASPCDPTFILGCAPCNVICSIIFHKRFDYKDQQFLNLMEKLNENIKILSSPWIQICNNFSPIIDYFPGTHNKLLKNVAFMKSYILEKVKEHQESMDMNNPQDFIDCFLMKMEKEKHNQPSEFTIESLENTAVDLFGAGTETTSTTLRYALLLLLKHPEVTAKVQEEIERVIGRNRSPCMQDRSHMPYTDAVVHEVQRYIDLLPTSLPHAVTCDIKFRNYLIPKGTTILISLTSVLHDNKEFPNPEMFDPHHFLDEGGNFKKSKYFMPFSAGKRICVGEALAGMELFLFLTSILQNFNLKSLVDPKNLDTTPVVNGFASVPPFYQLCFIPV

In the case of `COc1cccc2c(C(=O)N3CCN4CCCC[C@H]4C3)cn(CC3CCCCC3)c12` [listing 1 of 2 here], the IC50 [1] is reported as 12 µM, the Ki [2] is reported as 0.00398 µM and the Activity [3] is reported as “Non-toxic”. The ED50 [4] was 0.00058 µmol/kg, the Ki [5] was 0.00251 µM and the IC50 [6] was 6 µM. For the same compound, the IC50 [7] was 13 µM.

`COc1cccc2c(C(=O)N3C[C@@H]4CCCN4C[C@@H]3CC(C)C)cn(CC3CCCCC3)c12` showed an EC50 [8] greater than 10 µM, a half-life [9] of less than 5 min and a half-life [10] of less than 5 min.

With `O=C(c1cn2c3c(cccc13)OC[C@@H]2C1CCCCC1)N1CCN2CCCC[C@H]2C1` the EC50 [8] was 2 µM.

`COc1cccc2c(C(=O)N3CCN4CCC[C@@]4(C)C3)cn(CC3CCCCC3)c12.Cl` showed an EC50 [8] of 1.26 µM, a half-life [9] of less than 5 min and a half-life [10] of less than 5 min.

With `COc1cccc2c(C(=O)N3C[C@@H]4CCCN4C[C@@H]3C)cn(CC3CCCCC3)c12` the EC50 [8] was 0.1 µM, the half-life [9] was less than 5 min and the half-life [10] was less than 5 min.

In the case of `COc1cccc2c(C(=O)N3CCN4CCCC[C@@H]4C3)cn(CC3CCCCC3)c12`, the EC50 [8] is reported as 0.1 µM, the half-life [9] is reported as less than 5 min and the half-life [10] is reported as less than 5 min.

With `CCCCCCC(C)(C)c1ccc([C@@H]2C[C@H](O)CC[C@H]2CCCO)c(O)c1` [CP-55940] the ED50 [4] was 0.00011 µmol/kg.

In the case of `COc1cccc2c(C(=O)N3C[C@H]4CCCN4C[C@H]3CC(C)C)cn(CC3CCCCC3)c12`, the EC50 [8] is reported as 0.316 µM, the half-life [9] is reported as less than 5 min and the half-life [10] is reported as less than 5 min.

Compound `COc1cccc2c(C(=O)N3CCN4CCC[C@@H]4C3)cn(CC3CCCCC3)c12` has an EC50 [8] of 0.0631 µM, a half-life [9] of less than 5 min and a half-life [10] of less than 5 min.

`COc1cccc2c(C(=O)N3C[C@H]4CCCN4CC3(C)C)cn(CC3CCCCC3)c12` gave an EC50 [8] of 0.631 µM, a half-life [9] of less than 5 min and a half-life [10] of less than 5 min.

In the case of `O=C(c1cn2c3c(cccc13)OC[C@H]2C1CCCCC1)N1CCN2CCCC[C@H]2C1`, the Ki [2] is reported as 0.000398 µM, the ED50 [4] is reported as 0.00042 µmol/kg and the Ki [5] is reported as 0.00158 µM.

With `COc1cccc2c(C(=O)N3C[C@@H]4CCCN4C[C@H]3C)cn(CC3CCCCC3)c12.Cl` the EC50 [8] was 1 µM, the half-life [9] was less than 5 min and the half-life [10] was less than 5 min.

`COc1cccc2c(C(=O)N3C[C@H]4CCCN4C[C@H]3C)cn(CC3CCCCC3)c12.Cl` gave an EC50 [8] of 0.0631 µM, a half-life [9] of less than 5 min and a half-life [10] of less than 5 min.

In the case of `COc1cccc2c(C(=O)N3CCN4CCC[C@H]4C3)cn(CC3CCCCC3)c12.Cl`, the EC50 [8] is reported as 0.02 µM, the half-life [9] is reported as less than 5 min and the half-life [10] is reported as less than 5 min.

In the case of `COc1cccc2c(C(=O)N3C[C@]4(C)CSCN4C[C@@H]3C)cn(CC3CCCCC3)c12.Cl`, the EC50 [8] is reported as 0.0316 µM, the half-life [9] is reported as less than 5 min and the half-life [10] is reported as less than 5 min.

For `COc1cccc2c(C(=O)N3CCN4CCCC[C@H]4C3)cn(CC3CCCCC3)c12.Cl`, the half-life [9] was less than 5 min and the half-life [10] was less than 5 min.

For `Cc1c(C(=O)c2cccc3ccccc23)c2cccc3c2n1[C@H](CN1CCOCC1)CO3` [WIN-552122], the ED50 [4] was 0.0017 µmol/kg.

In the case of `COc1cccc2c(C(=O)N3C[C@@H]4CCCN4CC3(C)C)cn(CC3CCCCC3)c12`, the EC50 [8] is reported as 0.1 µM, the half-life [9] is reported as less than 5 min and the half-life [10] is reported as less than 5 min.

With `COc1cccc2c(C(=O)N3CCN4CCCC[C@H]4C3)cn(CC3CCCCC3)c12` [listing 2 of 2 here] the Activity [11] was “inactive”, the Activity [12] was “Dose-dependent effect” and the Activity [13] was “Dose-dependent effect”. The Activity [14] was “Active”, the Activity [15] was “inactive” and the Activity [16] was “Active”. The Activity [17] was “Dose-dependent effect”, the Activity [18] was “Dose-dependent effect” and the Activity [19] was “inactive”. For the same compound, the Activity [20] was “Active”, the Activity [21] was “Active” and the Activity [22] was “inactive”.

With `COc1cccc2c(C(=O)N3C[C@H]4CCCN4C[C@@H]3C)cn(CC3CCCCC3)c12.Cl` the EC50 [8] was 0.501 µM, the half-life [9] was less than 5 min and the half-life [10] was less than 5 min.
